Source: PubChem BioAssay AID1963839 (Molecular Pharmacology Branch, DTP, NCI, 2024)

Test system: 817829-284-R-J1-PDC complex spheroid viability
Experiment: Anticancer human tumor 817829-284-R-J1-PDC patient-derived colon adenocarcinoma cell line growth inhibition [POLQ]
Conditions: for IC50: curve of first compound; for viability, T/C: stronger effect = lower value
Procedure, shortened: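 Patient-derived tumour cells were co-cultured with HUVEC and mesenchymal stem cells as multicellular spheroids at 37 °C. They were treated with POLQ inhibitors (novobiocin, ART-558, RP6685) alone or combined with other agents. Top concentrations were at or near clinical Cmax (otherwise 10 microM; SN-38 at 1 microM), decreasing in half-log steps.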
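Note: spheroids exposed to compounds for 7 days.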
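Throughout, for viability, T/C: 100% = DMSO vehicle-treated spheroids.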

Question: For Nc1ccn(C2OC(CO)C(O)C2(F)F)c(=O)n1 (centres undefined) + Cc1cccc(N(C)C(=O)C2C(O)CCN2c2nc(C)cc(C(F)(F)F)c2C#N)c1, which IC50 (second compound 0.0316 µM) is on record?
Answer: < 31.6 nM

Question: What about the IC50 (second compound 0.1 µM) of the same compound?
Answer: < 31.6 nM

Question: And the IC50 (second compound 0.316 µM)?
Answer: < 31.6 nM

Question: What about the IC50 (second compound 1 µM) of the same compound?
Answer: < 31.6 nM

Question: And the IC50 (second compound 3.16 µM)?
Answer: < 31.6 nM

Question: What about the IC50 (second compound 10 µM) of the same compound?
Answer: < 31.6 nM

Question: What about the viability, T/C (second compound 0.0316 µM, first compound 0.0316 µM) of the same compound?
Answer: 4.93%

Question: What about the viability, T/C (second compound 0.0316 µM, first compound 0.1 µM) of the same compound?
Answer: 6.34%

Question: What about the viability, T/C (second compound 0.0316 µM, first compound 0.316 µM) of the same compound?
Answer: 5.78%

Question: What about the viability, T/C (second compound 0.0316 µM, first compound 1 µM) of the same compound?
Answer: 4.47%

Question: And the viability, T/C (second compound 0.0316 µM, first compound 3.16 µM)?
Answer: 4.13%

Question: What about the viability, T/C (second compound 0.0316 µM, first compound 10 µM) of the same compound?
Answer: 3%

Question: And the viability, T/C (second compound 0.1 µM, first compound 0.0316 µM)?
Answer: 5.1%

Question: What about the viability, T/C (second compound 0.1 µM, first compound 0.1 µM) of the same compound?
Answer: 4.91%

Question: And the viability, T/C (second compound 0.1 µM, first compound 0.316 µM)?
Answer: 5.63%

Question: And the viability, T/C (second compound 0.1 µM, first compound 1 µM)?
Answer: 4.62%

Question: What about the viability, T/C (second compound 0.1 µM, first compound 3.16 µM) of the same compound?
Answer: 3.58%

Question: And the viability, T/C (second compound 0.1 µM, first compound 10 µM)?
Answer: 2.89%

Question: And the viability, T/C (second compound 0.316 µM, first compound 0.0316 µM)?
Answer: 6.1%

Question: What about the viability, T/C (second compound 0.316 µM, first compound 0.1 µM) of the same compound?
Answer: 5.35%

Question: And the viability, T/C (second compound 0.316 µM, first compound 0.316 µM)?
Answer: 5.35%

Question: And the viability, T/C (second compound 0.316 µM, first compound 1 µM)?
Answer: 5.17%

Question: What about the viability, T/C (second compound 0.316 µM, first compound 3.16 µM) of the same compound?
Answer: 4.11%

Question: What about the viability, T/C (second compound 0.316 µM, first compound 10 µM) of the same compound?
Answer: 2.77%

Question: What about the viability, T/C (second compound 1 µM, first compound 0.0316 µM) of the same compound?
Answer: 4.92%

Question: What about the viability, T/C (second compound 1 µM, first compound 0.1 µM) of the same compound?
Answer: 5.99%

Question: What about the viability, T/C (second compound 1 µM, first compound 0.316 µM) of the same compound?
Answer: 4.9%

Question: What about the viability, T/C (second compound 1 µM, first compound 1 µM) of the same compound?
Answer: 4.77%

Question: And the viability, T/C (second compound 1 µM, first compound 3.16 µM)?
Answer: 3.54%

Question: What about the viability, T/C (second compound 1 µM, first compound 10 µM) of the same compound?
Answer: 2.95%

Question: And the viability, T/C (second compound 3.16 µM, first compound 0.0316 µM)?
Answer: 5.03%

Question: What about the viability, T/C (second compound 3.16 µM, first compound 0.1 µM) of the same compound?
Answer: 5.55%

Question: What about the viability, T/C (second compound 3.16 µM, first compound 0.316 µM) of the same compound?
Answer: 6.02%

Question: What about the viability, T/C (second compound 3.16 µM, first compound 1 µM) of the same compound?
Answer: 4.31%

Question: What about the viability, T/C (second compound 3.16 µM, first compound 3.16 µM) of the same compound?
Answer: 4.69%

Question: What about the viability, T/C (second compound 3.16 µM, first compound 10 µM) of the same compound?
Answer: 3.24%

Question: What about the viability, T/C (second compound 10 µM, first compound 0.0316 µM) of the same compound?
Answer: 6.79%

Question: What about the viability, T/C (second compound 10 µM, first compound 0.1 µM) of the same compound?
Answer: 5.07%

Question: What about the viability, T/C (second compound 10 µM, first compound 0.316 µM) of the same compound?
Answer: 5.13%

Question: What about the viability, T/C (second compound 10 µM, first compound 1 µM) of the same compound?
Answer: 4.16%

Question: What about the viability, T/C (second compound 10 µM, first compound 3.16 µM) of the same compound?
Answer: 4.17%

Question: And the viability, T/C (second compound 10 µM, first compound 10 µM)?
Answer: 2.99%

Question: Which results are given for CC(=O)O[C@H]1C(=O)[C@@]2(C)[C@H]([C@H](OC(=O)c3ccccc3)[C@]3(O)C[C@H](OC(=O)[C@H](O)[C@@H](NC(=O)c4ccccc4)c4ccccc4)C(C)=C1C3(C)C)[C@]1(OC(C)=O)CO[C@@H]1C[C@@H]2O + Cc1cccc(N(C)C(=O)C2C(O)CCN2c2nc(C)cc(C(F)(F)F)c2C#N)c1?
Answer: IC50 (second compound 0.0316 µM): < 9.49 nM; IC50 (second compound 0.1 µM): < 9.49 nM; IC50 (second compound 0.316 µM): < 9.49 nM; IC50 (second compound 1 µM): < 9.49 nM; IC50 (second compound 3.16 µM): < 9.49 nM; IC50 (second compound 10 µM): < 9.49 nM; viability, T/C (second compound 0.0316 µM, first compound 0.00949 µM): 4.71%; viability, T/C (second compound 0.0316 µM, first compound 0.03 µM): 4.06%; viability, T/C (second compound 0.0316 µM, first compound 0.0949 µM): 3.84%; viability, T/C (second compound 0.0316 µM, first compound 0.3 µM): 3.78%; viability, T/C (second compound 0.0316 µM, first compound 0.949 µM): 3.98%; viability, T/C (second compound 0.0316 µM, first compound 3 µM): 4.66%; viability, T/C (second compound 0.1 µM, first compound 0.00949 µM): 4.94%; viability, T/C (second compound 0.1 µM, first compound 0.03 µM): 4.36%; viability, T/C (second compound 0.1 µM, first compound 0.0949 µM): 3.84%; viability, T/C (second compound 0.1 µM, first compound 0.3 µM): 4.37%; viability, T/C (second compound 0.1 µM, first compound 0.949 µM): 4.32%; viability, T/C (second compound 0.1 µM, first compound 3 µM): 4.51%; viability, T/C (second compound 0.316 µM, first compound 0.00949 µM): 4.66%; viability, T/C (second compound 0.316 µM, first compound 0.03 µM): 4.72%; viability, T/C (second compound 0.316 µM, first compound 0.0949 µM): 4.39%; viability, T/C (second compound 0.316 µM, first compound 0.3 µM): 4.37%; viability, T/C (second compound 0.316 µM, first compound 0.949 µM): 4.24%; viability, T/C (second compound 0.316 µM, first compound 3 µM): 3.51%; viability, T/C (second compound 1 µM, first compound 0.00949 µM): 4.57%; viability, T/C (second compound 1 µM, first compound 0.03 µM): 8.02%; viability, T/C (second compound 1 µM, first compound 0.0949 µM): 4.15%; viability, T/C (second compound 1 µM, first compound 0.3 µM): 4.37%; viability, T/C (second compound 1 µM, first compound 0.949 µM): 4.04%; viability, T/C (second compound 1 µM, first compound 3 µM): 4.46%; viability, T/C (second compound 3.16 µM, first compound 0.00949 µM): 4.41%; viability, T/C (second compound 3.16 µM, first compound 0.03 µM): 3.99%; viability, T/C (second compound 3.16 µM, first compound 0.0949 µM): 4.51%; viability, T/C (second compound 3.16 µM, first compound 0.3 µM): 4.14%; viability, T/C (second compound 3.16 µM, first compound 0.949 µM): 3.93%; viability, T/C (second compound 3.16 µM, first compound 3 µM): 3.87%; viability, T/C (second compound 10 µM, first compound 0.00949 µM): 4.67%; viability, T/C (second compound 10 µM, first compound 0.03 µM): 3.97%; viability, T/C (second compound 10 µM, first compound 0.0949 µM): 4.2%; viability, T/C (second compound 10 µM, first compound 0.3 µM): 4.14%; viability, T/C (second compound 10 µM, first compound 0.949 µM): 4.11%; viability, T/C (second compound 10 µM, first compound 3 µM): 4.13%
